Assays:
[1] = biological target: T1, human toll like receptor 8 (hTLR8) (Homo sapiens, UniProt Q9NR97); test: hTLR8 cell functional assay (HEK-Blue hTLR8 SEAP reporter); format: cell-based; conditions: HEK293 cells stably overexpressing hTLR8, SEAP reporter; geometric mean when tested more than once
T1 construct: host or cells: HEK293 (HEK-Blue hTLR8)
T1 sequence (Q9NR97 27-1041): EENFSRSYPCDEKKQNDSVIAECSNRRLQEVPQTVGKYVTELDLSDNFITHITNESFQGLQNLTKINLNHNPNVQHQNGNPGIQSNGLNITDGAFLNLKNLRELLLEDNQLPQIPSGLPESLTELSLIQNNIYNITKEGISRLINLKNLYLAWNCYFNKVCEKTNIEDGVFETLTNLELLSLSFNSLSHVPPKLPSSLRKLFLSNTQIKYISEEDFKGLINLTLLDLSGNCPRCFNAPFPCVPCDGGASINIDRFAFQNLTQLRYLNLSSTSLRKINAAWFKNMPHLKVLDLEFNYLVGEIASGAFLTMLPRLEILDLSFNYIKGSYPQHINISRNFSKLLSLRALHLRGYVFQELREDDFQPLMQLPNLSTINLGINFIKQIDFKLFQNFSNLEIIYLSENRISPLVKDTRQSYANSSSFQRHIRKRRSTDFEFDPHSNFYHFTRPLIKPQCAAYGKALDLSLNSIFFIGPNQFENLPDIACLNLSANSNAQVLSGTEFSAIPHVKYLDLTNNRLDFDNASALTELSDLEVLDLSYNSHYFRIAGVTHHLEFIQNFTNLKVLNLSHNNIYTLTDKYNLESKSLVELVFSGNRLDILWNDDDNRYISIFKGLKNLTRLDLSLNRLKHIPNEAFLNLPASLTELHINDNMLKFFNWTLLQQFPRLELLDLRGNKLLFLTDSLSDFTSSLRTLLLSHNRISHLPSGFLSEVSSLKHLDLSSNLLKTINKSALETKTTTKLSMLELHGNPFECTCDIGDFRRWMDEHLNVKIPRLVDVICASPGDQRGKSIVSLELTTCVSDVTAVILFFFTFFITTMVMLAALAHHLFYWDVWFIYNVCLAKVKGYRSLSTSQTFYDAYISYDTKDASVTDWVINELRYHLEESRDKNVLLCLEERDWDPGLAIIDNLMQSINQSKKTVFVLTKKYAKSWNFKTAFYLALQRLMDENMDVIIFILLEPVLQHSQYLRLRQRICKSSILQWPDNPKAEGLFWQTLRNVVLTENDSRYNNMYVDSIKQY
Procedure: (§1) The Examples described were tested for biological activity in functional cellular assays using HEK293 cells stably overexpressing human TLR7 or TLR8. The assays tested for the ability of each Example to stimulate secretion of interferon alpha (IFNα) in human primary blood mono nuclear cells (PBMC).
(§2) To determine the ability of each Example to activate the human toll like receptor 7 (hTLR7) or human toll like receptor 8 (hTLR8), cell-based reporter systems were utilized. HEK293 cells stably overexpressing either hTLR7 or hTLR8 along with a reporter gene containing an optimized secreted embryonic alkaline phosphatase gene (SEAP), under the control of the IFN-b minimal promoter fused to five NF-κB and AP-1-binding sites, were obtained from Invivogen (HEK-Blue™ hTLR7, cat #Hkb-ht1r7; HEK-Blue™ hTLR8, cat #Hkb-ht1r8). Stimulation of hTLR7 or hTLR8 in these cells activates NF-κB and AP-1 and induces the production of SEAP which can be quantified using an alkaline phosphatase detection reagent.
(§3) Cells were maintained in Dulbecco's Modified Eagle Media (DMEM) (containing Fetal Bovine Serum (FBS) heat inactivated (10%), Glutamax (2 mM), Penicillin/Streptomycin, Blasticidin (10 μg/ml), Zeocin (100 μg/ml) and Normocin (100 μg/ml)). On day one of the assay, Examples were prepared using 11-point half-log serial dilutions from a 10mM DMSO stock solution and 50 nl was spotted into 384-well Viewplates (PerkinElmer, cat #6007480). Positive control TLR7/8 agonist and negative control (DMSO, no Example) were also spotted within the assay plate and were used to determine percent effect during the analysis process. After resuspension in DMEM assay media containing FBS heat inactivated (10%), Glutamax (2 mM) and Penicillin/Streptomycin, 10,000 cells/20 μl/well were added to previously prepared plates. Plates were incubated overnight (16-20 hrs) at 37° C. in a 5% CO2 environment. Prewetted Microclime lids (Labcyte, LLS-0310) were used to prevent evaporation. On day two of the assay, QUANTI-Blue™ detection reagent was prepared by reconstituting QUANTI-Blue™ powder (InvivoGen, Rep-qb1) with 100 ml of sterile water and allowed to equilibrate to 37° C. for 15 minutes. 20 μl of QUANTI-Blue™ detection reagent was added to each well and plates were incubated at room temperature for 180 min. At the end of the incubation, plates were read on an Envision (Perkin Elmer) plate reader capturing absorbance at 650 nm.
(§4) Using Positive (TLR7/8 agonist) and Negative (DMSO) controls, the percent (%) effect was calculated for each Example using the following equation: effect=100−[100*{(Example−Positive Control)/(Negative Control−Positive Control)}]
(§5) The % effect at each concentration of each Example was calculated utilizing the ABase software suite (IBDS) and was relative to the amount of SEAP produced in the positive and negative control wells contained within each assay plate. The concentrations and % effect values for each Example were fit using a 4-parameter logistic model in ABase and the concentration of each Example that produced 50% response (EC50) was calculated.

[2] = biological target: T2, human toll like receptor 7 (hTLR7) (Homo sapiens, UniProt Q9NYK1); test: hTLR7 cell functional assay (HEK-Blue hTLR7 SEAP reporter); format: cell-based; conditions: HEK293 cells stably overexpressing hTLR7, SEAP reporter; geometric mean when tested more than once
T2 construct: host or cells: HEK293 (HEK-Blue hTLR7)
T2 sequence (Q9NYK1 27-1049): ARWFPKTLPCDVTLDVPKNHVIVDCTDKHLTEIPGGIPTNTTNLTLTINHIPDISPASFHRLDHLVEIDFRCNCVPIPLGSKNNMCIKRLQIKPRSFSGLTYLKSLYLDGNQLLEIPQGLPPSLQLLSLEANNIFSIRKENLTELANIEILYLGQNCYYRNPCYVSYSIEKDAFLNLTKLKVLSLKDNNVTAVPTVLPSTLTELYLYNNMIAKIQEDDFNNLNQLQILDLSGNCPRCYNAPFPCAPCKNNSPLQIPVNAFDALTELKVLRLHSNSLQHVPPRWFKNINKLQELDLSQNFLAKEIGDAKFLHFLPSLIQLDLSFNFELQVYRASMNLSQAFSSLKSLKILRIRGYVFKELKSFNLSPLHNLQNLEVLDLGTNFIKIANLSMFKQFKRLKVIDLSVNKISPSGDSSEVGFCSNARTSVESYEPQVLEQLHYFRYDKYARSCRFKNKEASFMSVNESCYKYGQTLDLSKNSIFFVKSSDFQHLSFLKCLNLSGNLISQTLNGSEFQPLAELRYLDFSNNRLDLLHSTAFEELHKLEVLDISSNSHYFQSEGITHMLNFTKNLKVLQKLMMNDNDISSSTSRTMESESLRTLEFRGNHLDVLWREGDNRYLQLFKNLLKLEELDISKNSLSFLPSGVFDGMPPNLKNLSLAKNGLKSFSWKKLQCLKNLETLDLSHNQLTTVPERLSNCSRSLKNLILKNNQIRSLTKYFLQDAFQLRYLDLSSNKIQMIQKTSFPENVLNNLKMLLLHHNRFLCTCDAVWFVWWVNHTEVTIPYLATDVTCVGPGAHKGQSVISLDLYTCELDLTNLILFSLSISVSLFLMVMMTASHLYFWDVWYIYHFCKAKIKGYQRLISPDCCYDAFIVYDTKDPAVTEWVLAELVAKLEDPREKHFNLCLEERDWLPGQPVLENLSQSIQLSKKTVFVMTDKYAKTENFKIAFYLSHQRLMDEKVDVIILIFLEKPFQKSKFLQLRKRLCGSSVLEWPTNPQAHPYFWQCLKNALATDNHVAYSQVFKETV
Procedure: as §1, §2, §3, §4, §5

[3] = tested on: superficial basal cell carcinomas; conditions: marketed 5% cream (Aldara); cited from earlier work

Row | EC50 [1] [nM] | EC50 [2] [nM] | SMILES | 5-year clearance of superficial basal cell carcinomas [3]
1 | 160 | 13 | CCCCc1nc2c(N)nc(C)c(C)c2n1CC(C)(CO)CO [Example 11, 2-((4-amino-2-butyl-6,7-dimethyl-1H-imidazo[4,5-c]pyridin-1-yl)methyl)-2-methylpropane-1,3-diol] | –
2 | 191 | 9 | CCCCCc1nc2c(N)nc3ccccc3c2n1CC(C)(CO)CO [Example 12, 2-((4-amino-2-pentyl-1H-imidazo[4,5-c]quinolin-1-yl)methyl)-2-methylpropane-1,3-diol] | –
3 | 1060 | 156 | COCCc1nc2c(N)nc3c(c2n1CC(C)(CO)CO)CCC3 [Example 17, 2-((4-amino-2-(2-methoxyethyl)-7,8-dihydrocyclopenta[b]imidazo[4,5-d]pyridin-1(6H)-yl)methyl)-2-methylpropane-1,3-diol] | –
4 | 119 | 16 | COCCc1nc2c(N)nc3c(c2n1CC(C)(CO)CO)CCCC3 [Example 18, 2-((4-amino-2-(2-methoxyethyl)-6,7,8,9-tetrahydro-1H-imidazo[4,5-c]quinolin-1-yl)methyl)-2-methylpropane-1,3-diol] | –
5 | 310 | 9 | COCCc1nc2c(N)nc3ccccc3c2n1CC(C)(CO)CO [Example 19, 2-((4-amino-2-(2-methoxyethyl)-1H-imidazo[4,5-c]quinolin-1-yl)methyl)-2-methylpropane-1,3-diol] | –

Second part, the molecule before the results:

Row | SMILES | EC50 [1] [nM] | EC50 [2] [nM] | 5-year clearance of superficial basal cell carcinomas [3]
6 | CCOCc1nc2c(N)nc3c(c2n1CC(C)(CO)CO)CCC3 [Example 4, 2-((4-amino-2-(ethoxymethyl)-7,8-dihydrocyclopenta[b]imidazo[4,5-d]pyridin-1(6H)-yl)methyl)-2-methylpropane-1,3-diol] | 400 | 54 | –
7 | CCOCc1nc2c(N)nc3c(c2n1CC(C)(CO)CO)CCCC3 [Example 5, 2-((4-amino-2-(ethoxymethyl)-6,7,8,9-tetrahydro-1H-imidazo[4,5-c]quinolin-1-yl)methyl)-2-methylpropane-1,3-diol] | 273 | 42 | –
8 | CC(C)Cn1cnc2c(N)nc3ccccc3c21 [Imiquimod] | – | – | approximately 80%

Reference: patent US11976064B2, “Toll-like receptor agonists” (Pfizer Inc., priority 2019, dated 2024)
